# Starred links: 1 amine or outer side, 2 acyl side, 3 side chain; linkers in the order of their positions; H or OH if unused. Positions of bridges follow the written chain, without caps; N, C: chain ends. Non-standard residues stand in square brackets, D forms with d. Residues, ends and D or L forms follow the SMILES beside them. X1 = CC1CC(C2=NC(C(=O)[*:2])CS2)N1[*:1]; NMeV = CN[CH](C(=O)O)C(C)C; X2 = O=C(C(O)CO[*:2])[*:1]; Pip = O=C(O)[CH]1CCCCN1; Dhb = C/C=C(\N)C(=O)O
# What was measured:
# [1] = according to a publication; cited from earlier work
# [2] = test system: type I interferon response (Mx2-promoter controlled luciferase); assay: Bioluminescent imaging of type I IFN reporter mice (BAC Mx2Luc2); assay type: in vivo; conditions: 20 μg i.v., IFN-β i.v. after 1 h
# Description: In FIG. 8 the inhibitory response of Vioprolide A on the type I interferon response is shown. In FIG. 8A a female type I IFN reporter mice, which contain the IFN-responsive BAC Mx2Luc2, were i.v. treated with 20 μg of Vioprolide A (in 100% EtOH). First image was taken immediately after Vioprolide A treatment. After 1 h mice were i.v. injected with 5.000 U/ml IFN-β (PBL). Three hours after IFN-treatment second series of images were taken. For control one animal was only treated with Vioprolide A or with IFN, respectively. Bioluminescent images were obtained using the IVIS200 System (Xenogen). […] Rainbow scales indicate number of photons measured per second×cm2×sr.
# For the following in vivo experiment 20 μg of Vioprolide A were employed. This amount was calculated according to a publication appointing the lethal dose of this compound to be 3 mg/kg and moreover to concentrations used for anti-tumour studies Thus, type I IFN reporter mice were intravenously injected with Vioprolide A and subjected for bioluminescent imaging. After one hour mice were additionally treated with IFN-β and responses were assessed after a three-hour incubation time. […]
# In FIG. 8A female type I IFN reporter mice, which contain the IFN-responsive BAC Mx2Luc2, were i.v. treated with 20 μg of Vioprolide A (in 100% EtOH). […] Rainbow scales indicate number of photons measured per second×cm2×sr.
# [3] = test system: type I IFN responses (IFN-inducible Mx2-promoter, tdTomato); assay: Mx2Tom reporter cells, tdTomato expression by flow cytometry; assay type: cell-based; conditions: IFN-β plus different concentrations, overnight incubation
# Description: This allowed assessment of the Vioprolide A effect on the IFN system on a single cell level. Thus, cells were stimulated with IFN-β as wells as different concentrations of Vioprolide A and expression of tdTomato was analyzed after overnight incubation using flow cytometry.
# [4] = test system: type I IFN response (IFN-β induced Mx2-driven luciferase activity); assay: Type I IFN reporter cell assay (Mx2-driven Firefly luciferase, NIH3T3 Mx2-Luc2); assay type: cell-based, murine
# Description: In FIG. 6A the type I IFN reporter cells were pretreated with different concentrations of Vioprolide A (0, 5, 10, 30, 50 or 100 ng/ml). After pre-treatment for two hours cells were stimulated with IFN-β (500 U/ml) in the continuous presence of the indicated Vioprolide concentrations. In FIG. 6B type I IFN reporter cells were pretreated with IFN-β ([…]). After four hours cells were additionally stimulated with different concentrations of Vioprolide A (0, 5, 10, 30, 50 or 100 ng/ml). Untreated cells were used as control (Crtl). Luciferase activity was measured after 24 hours and relative luminescent units (RLU) were calculated to one μg of protein detected by Bradford assay.
# For measuring type I IFNs BAC-based reporter constructs have been used. BACs harbouring the cDNA of Firefly luciferase 2 (luc2) under control of the Mx2 promoter were engineered, NIH3T3 Mx2-Luc2. The change from Luc+ (pGL3 basic, Promega) used in the before mentioned reporter constructs to the next generation luciferase (pGL4.10, Promega) was performed, as Luc2 theoretically promised to achieve higher signal intensities and therefore might also be more practicable for further in vivo imaging experiments. This newly generated BAC was electroporated into the murine fibroblast cell line NIH/3T3.
# After overnight incubation luciferase activity was determined and calculated according to protein levels to scale with the antiproliferative effects of Vioprolide. […] The median inhibitory concentration (IC50), which reduces IFN-induced responses by 50%, was calculated to be 10 ng/ml of Vioprolide A.
# In FIG. 6A type I IFN reporter cells, NIH3T3 Mx2-Luc2 were pretreated with different concentrations of Vioprolide A (−, 5, 10, 30, 50 or 100 ng/ml). After pre-treatment for two hours cells were stimulated with IFN-β (500 U/ml) in the continuous presence of the indicated Vioprolide concentrations. In FIG. […] type I IFN reporter cells were pretreated with IFN-β (500 U/ml). After four hours cells were additionally stimulated with different concentrations of Vioprolide A (−, 5, 10, 30, 50 or 100 ng/ml). Untreated cells were used as control (CM). Luciferase activity was measured after 24 hours and relative luminescent units (RLU) were calculated to one μg of protein detected by Bradford assay.
# Next, the effect of Vioprolide A on previously activated type I IFN signalling was addressed. This was performed to exclude a direct inhibitory interaction of this natural compound with IFN molecules or their cognate receptors type I IFN reporter cells were therefore stimulated with IFN-β four hours prior to treatment with different Vioprolide A concentrations. After overnight incubation cells were harvested and luciferase activity was assayed. […] A first significant reduction of luciferase activity (for p<0.05) could be visualized with 30 ng/ml Vioprolide A (FIG. 6B). The IC50 was identified to 20 ng/ml.
# [5] = test system: vesicular stomatitis virus (VSV); assay type: cell-based
# [6] = test system: type II IFN response (IFN-γ, Gbp2 promoter); assay: Type II IFN reporter cell assay (Gbp2-driven Renilla luciferase, NIH3T3 Gbp2-RLuc); assay type: cell-based, murine; conditions: 500 U/ml IFN-γ, Vioprolide A one hour later, all concentrations tested (50, 100, 200 ng/ml); not related to protein
# Description: IFN-γ reporter NIH/3T3 cells harbouring the recombinant BAC Gbp2RLuc were seeded on 96-well-plates and treated with IFN-γ ([…]) or left untreated (“−”). After one hour cells were exposed to different concentrations of Vioprolide A (−, 50, 100 or 200 ng/ml) and incubated overnight. Gbp2-driven Renilla luciferase expression was determined by luciferase assay. Results are expressed as fold induction of basal expression (n=3).
# In addition, Vioprolide A might also modulate type II IFN responses. […] Hereby, expression of Renilla luciferase is driven by the type II IFN responsive promoter of the Gbp2 gene obtained using a BAC containing the GBP2 gene locus and following the method described above. In this experiment, reporter cells, NIH3T3 Gbp2-RLuc were seeded on […], stimulated with 500 U/ml IFN-γ and one hour later incubated with different concentrations of Vioprolide A. Afterwards the IFN response was analysed by quantifying Renilla luciferase activity. Since this assay was performed on a microtiter format, quantification of protein amounts by former used BCA as well as Bradford assay was impossible. […] Thus, evidence for a negative influence of Vioprolide A on both type I and type II IFN responses was provided.
structure (smiles),measurement,setting,value
C/C=C1\NC(=O)C2CSC(=N2)C2CC(C)N2C(=O)C(CC(C)C)NC(=O)C(C)NC(=O)C(O)COC(=O)C(C(C)C)N(C)C(=O)C(C(C)O)NC(=O)C2CCCCN2C1=O (stereo not shown) [Vioprolide A] (AL[X1][Dhb][Pip]T[NMeV]; linker N-C via X2; configuration not given here),lethal dose,[1],3 mg/kg
same,light emission after IFN treatment relative to combined IFN and Vioprolide stimulation,"[2]; 3 h after IFN, average radiance, FIG. 8B",ten times higher
same,luciferase activity by optical imaging versus animal given IFN-β alone,"[2]; imaging 3 h after IFN, one mouse per stimulation",less luciferase activity
same,effect on tdTomato reporter expression,[3],dose-dependent inhibitory effect
same,reporter expression,"[4]; 100 ng/ml, IFN-β four hours prior to treatment",significant reduction of reporter expression
same,Mx2-driven luciferase activity at strongest inhibition,"[4]; 100 ng/ml, pre-treatment 2 h before IFN-β, FIG. 6A",dramatic decrease of Mx2-driven luciferase activity down to background levels
same,IC50 on previously activated type I IFN signalling,"[4]; IFN-β (500 U/ml) four hours prior to Vioprolide A, FIG. 6B",0.02 mg/L
same,concentration giving first significant reduction of luciferase activity (p<0.05),"[4]; IFN-β four hours prior to Vioprolide A, FIG. 6B",30 ng/mL
same,"median inhibitory concentration (IC50), which reduces IFN-induced responses by 50%","[4]; Vioprolide A two hours prior to IFN-β (500 U/ml), luciferase related to protein, FIG. 6A",0.01 mg/L
same,impact on IFN responses in vitro compared within the class of Vioprolides,"[4]; cell culture systems, screening",highest impact on IFN responses in vitro
same,effect on the type I IFN response,"[4]; pre-treatment 2 h before IFN-β, all concentrations tested (5-100 ng/ml)",inhibitory effect
same,effect on IFN-mediated antiviral activities,[5],inhibitory effect on IFN-mediated antiviral activities
same,response to type II IFN (Renilla luciferase activity),[6],decreased response to type II IFN

# Source: patent US20110173707A1 (priority 2008, published 2011)
